Legend:
[1] = system: G361 malignant melanoma cells; assay: In vitro cytotoxicity testing (MTT assay), G361; type: cell-based, human; settings: 24 h drug exposure, no recovery, read-out: IC50±SD, G361
Experimental: (§1) A2780 ovarian carcinoma, A2780R cisplatin-resistant ovarian carcinoma, HOS osteosarcoma, G361 malignant melanoma, MCF7 breast carcinoma, A549 lung carcinoma, HeLa cervix carcinoma, 22Rv1 prostate carcinoma and Caco-2 colorectal carcinoma human cancer cell lines were purchased from the European Collection of Cell Cultures (ECACC), while the human non-cancerous hepatocytes (Hep) were supplied by Biopredic Intl. The cell lines were cultured, according to the suppliers`instructions, in RPMI-1640 medium supplemented with 10% of fetal calf serum, 1% of 2 mM glutamine, and 1% penicillin/streptomycin. All cell lines were grown as adherent monolayers at 37°C and 5% CO2 in a humidified atmosphere.
(§2) The cells were seeded to 96-well culture plates, pre-incubated in drug-free media at 37°C for 24 h and treated typically with the 0.01–50.0 μM solutions, prepared from the stock solutions by dilution with medium, for 24 h at 37°C. […] In parallel with compounds 1–8 and the reference drugs, the cells were also treated with vehicle (0.1% DMF in medium; negative control) and Triton X-100 (1%; positive control) to assess the minimal and maximal cell damage, respectively. The MTT assay was used to determine the cell viability; MTT = 3-(4,5-dimethylthiazol-2-yl)-2,5-diphenyltetrazolium bromide. A concentration of the formed dye was evaluated spectrophotometrically at 540 nm (TECAN, Schoeller Instruments LLC).
(§3) The data were expressed as the percentage of viability, where 100% and 0% represents the treatments with negative and positive controls, respectively. The data from the cancer cells were acquired from three independent experiments (conducted in triplicate) using cells from different passages. The resulting IC50 values (μM) were calculated from viability curves and the results are presented as arithmetic mean±SD.

[2] = system: MCF7 breast carcinoma cells; assay: In vitro cytotoxicity testing (MTT assay), MCF7; type: cell-based, human; settings: 24 h drug exposure, no recovery, read-out: IC50±SD, MCF7
Experimental: as §1, §2, §3

[3] = system: A549 lung carcinoma cells; assay: In vitro cytotoxicity testing (MTT assay), A549; type: cell-based, human; settings: 24 h drug exposure, no recovery, read-out: IC50±SD, A549
Experimental: as §1, §2, §3

[4] = system: HeLa cervix carcinoma cells; assay: In vitro cytotoxicity testing (MTT assay), HeLa; type: cell-based, human; settings: 24 h drug exposure, no recovery, read-out: IC50±SD, HeLa
Experimental: as §1, §2, §3

[5] = system: 22Rv1 prostate carcinoma cells; assay: In vitro cytotoxicity testing (MTT assay), 22Rv1; type: cell-based, human; settings: 24 h drug exposure, no recovery, read-out: IC50±SD, 22Rv1
Experimental: as §1, §2, §3

[6] = system: A2780R cisplatin-resistant ovarian carcinoma cells; assay: In vitro cytotoxicity testing (MTT assay), A2780R; type: cell-based, human; settings: for IC50: 24 h drug exposure, no recovery, MTT, read-out: IC50±SD, A2780R; for resistance factor (RF), IC50(A2780R)/IC50(A2780): 24 h IC50 values
Experimental: All cell lines were grown as adherent monolayers at 37°C and 5% CO2 in a humidified atmosphere.
The MTT assay was used to determine the cell viability; MTT = 3-(4,5-dimethylthiazol-2-yl)-2,5-diphenyltetrazolium bromide. A concentration of the formed dye was evaluated spectrophotometrically at 540 nm (TECAN, Schoeller Instruments LLC).
as §3

[7] = system: human non-cancerous hepatocytes (Hep); assay: In vitro cytotoxicity testing (MTT assay), hepatocytes; type: cell-based; settings: 24 h drug exposure, no recovery
Experimental: as §1, §2, §3

[8] = system: MCF7 cells; assay: Cell cycle analysis (PI/RNase, flow cytometry), MCF7; type: cell-based, human; settings: MCF7, 24 h, IC50 concentration
Experimental: The A2780 and MCF7 cells (1.0 × 10^6 per well) were pre-incubated in a six-well plate for 24 h as described above. […] After 24 h, floating cells were collected and attached cells were harvested using trypsin/EDTA in PBS. Total cells were washed twice with PBS and fixed in 70% ethanol. Cells were re-suspended in PBS and DNA staining was achieved by a solution of propidium iodide (PI) supplemented with RNase A (30 min, 25°C, in the dark). […] The data were analysed using CytExpert™ software (Beckman Coulter).

[9] = system: calf thymus DNA (ctDNA); assay: Fluorescence quenching experiments on the EtBr/ctDNA system; type: binding; settings: for Stern-Volmer quenching constant KSV: TRIS/NaCl buffer pH 7.2; for apparent binding constant Kapp: estimated from Q50
Experimental: A volume of 405 μL of 154 μM ctDNA and 10 μL of 3 mM EtBr were mixed together in TRIS/NaCl buffer (pH = 7.2) and incubated for 30 min at ambient temperature. […] The mixtures were incubated at ambient temperature for next 15 min. The maxima of the emitted fluorescence of EtBr/ctDNA system have been observed at 613 nm (using the 546 nm excitation wavelength) and the intensity of fluorescence was recorded on a AvaSpec HS1024x122TE fluorescence spectrometer using a 1 cm quartz cell. […] Due to the indirect nature of the fluorescence quenching method, the value of KSV can be used for the estimation of the apparent binding constant Kapp of the complex by using the equation KEB [EtBr] = Kapp [Q50], where [Q50] is the concentration of the complex causing the 50% reduction in the intensity of fluorescence of the EtBr/DNA supramolecular complex, KEB = 1.0 × 10^6 M^−1 and [EtBr] = 10 μM [27].

[10] = system: L1210 mouse lymphocytic leukaemia cells; assay: In vivo antitumour activity testing, L1210 lymphocytic leukaemia model; parameters: species or system mice; settings: i.p.; for percentage of mean survival time T/C / mean survival time ± SD / tolerability / signs of toxicity (e.g. weight loss): dose equimolar to cisplatin 2 mg/kg; for mean survival time ± SD: 10 days after implantation, control 17.4±1.6 days
Experimental: The experimental animals used for in vivo antitumour testing were female DBA/2 SPF mice obtained from Charles Rivers Laboratories. The animals were housed in the Sealsafe NEXT—IVC Blue Line Housing System (Tecniplast, Italy) to ensure the best possible experimental conditions and eliminate the risk of possible intergroup cross-contamination, and kept in Plexiglas cages at constant temperature (22±1°C) and relative humidity of 55±5% for one-week adaptation period before the start of the experiment. All experimental procedures were performed according to the National Institute of Health (NIH) Guide for the Care and Use of Laboratory Animals. The protocol was approved by the Expert Committee on the Protection of Animals Against Cruelty at the University of Veterinary and Pharmaceutical Sciences Brno (Permit Number: 71/2013). The number of pharmacological interventions was limited to the necessary minimum in order to minimize the suffering of animals, which were observed regularly for the symptoms connected with the tumour progression. […] No animals had to be sacrificed due to the above mentioned criteria of humane treatment and no post-application deaths within the 2 hours after the application were observed during the experiment. […] The animal tissues for the ex vivo experiments and histological evaluations were taken post mortem, in case of surviving animals immediately after they were sacrificed by the lethal dose of carbon dioxide inhalation, immediately followed by the cervical dislocation.
The animals were monitored several times a day for the signs of tumour progression and distress development.

[11] = system: caspase 3 (Cas-3), active form p17; assay: Ex vivo Western blot of tumour tissues, cleaved caspase 3; type: in vivo, mice; settings: pooled tumour samples
Experimental: Frozen tumour samples were homogenized by a bench blender IKA DI25 (IKA-Werke, Germany) in the presence of a lysis buffer [cOmplete Protease Inhibitor Cocktail (Roche, Germany), 50 mM Tris-HCl pH 7.5, 1 mM EGTA, 1 mM EDTA, 1 mM sodium orthovanadate, 50 mM sodium fluoride, 5 mM sodium pyrophosphate, 270 mM sucrose, 0.5% (v/v) Triton X-100]. Subsequently, the blended samples were centrifuged at 9.000 g at 4°C for 15 min. The supernatants were collected and the protein concentration was measured by the Brandford’s method using the Brandford reagent (Amresco, USA) according to the manufacturer’s manual. The measured samples were stored at -80°C for the following experiments.
The expression of caspase 3, MCL-1, p53, and β-actin as loading control were evaluated by Western blot analysis and immunodetection. Lysates were mixed with a denaturing loading dye [250 mM Tris-HCl pH 6.8, 5% (v/v) β-mercaptoethanol, 10% (w/v) sodium dodecyl sulfate, 30% (v/v) glycerol, 0.04% (w/v) bromophenol blue], heated for 5 min at 70°C. […] The final protein amount was 50 μg per well. After protein separation in the gel, they were transferred on the Immun-Blot polyvinylidene difluoride membrane 0.2 μm (Bio-Rad, USA). Then, the membrane was blocked by 5% (w/v) BSA in TBST [10 mM Tris-HCl pH 7.5, 150 mM NaCl, 0.1% (v/v) Tween-20]. […] HRP was detected by Clarity Western ECL Substrate (Bio-Rad, USA) using chemiluminescent documentation system Syngene PXi-4 (UK).

[12] = system: spleen, renal tissue and tumour tissues of L1210 leukaemia-bearing mice; assay: Histological observations (light microscopy, semi-quantitative); settings: relative scale 0 to 4
Description: Randomly selected paraffin block preparations were stained by standard hematoxylin and eosin stain for light microscopic evaluation. Due to high cellularity, the semi-quantitative method was used for the evaluation of necrosis in well-circumcised and diffuse tumour samples and PMN cells infiltration in normal tissues as an indirect sign of toxicity to healthy tissues. The evaluation of necrotic processes and infiltration by PMN cells was semi-quantitative, based on the percentage of necrotic areas and/or infiltrated area in the view-field of at least three different samples.

| Structure (SMILES) | IC50 [1] [µM] | IC50 [2] [µM] | IC50 [3] [µM] | IC50 [4] [µM] | IC50 [5] [µM] | IC50 [6] [µM] | IC50 [7] [µM] | G0/G1 population [8] [%] | G2/M population [8] [%] | S population [8] [%] | sub-G1 population [8] [%] | Stern-Volmer quenching constant KSV [9] | apparent binding constant Kapp [9] | percentage of mean survival time T/C [10] [%] | mean survival time ± SD [10] [days] | level of active form of Cas-3 in tumour tissue [11] | Areas of necrosis in tumour tissues [12] | Infiltration of renal tissues (PMN cells) [12] | Infiltration of spleen (PMN cells) [12] | resistance factor (RF), IC50(A2780R)/IC50(A2780) [6] | other results |
| --- | --- | --- | --- | --- | --- | --- | --- | --- | --- | --- | --- | --- | --- | --- | --- | --- | --- | --- | --- | --- | --- |
| N.N.[Cl][Pt][Cl] [Cisplatin, cisplatin, reference compound] | 5.3 ± 0.7 | 17.9 ± 3.5 | > 50 | 30.4 ± 11 | 26.9 ± 3.5 | > 50 | > 75 | 33.4±2.8 | 38.2±1.9 | 26.3±1.9 | 1.6±0.2 | 4.7 × 10^3 M^–1 | 4.8 × 10^4 M^–1 | 108 | 18.8 ± 2.4 | has not been observed | 3 (3 = up to 75%) | 1 (1 = up to 25%) | 1 (1 = up to 25%) |  | maximum tolerated dose ([10]; mice): 2 mg/kg |
| Cc1cc2c(Cl)cc[n+]([Pt-2]([I])([I])[n+]3ccc(Cl)c4cc(C)[nH]c43)c2[nH]1 [Complex 8, cis-[PtI2(2Me4Claza)2]] | 1.7 ± 1.3 | 2.1 ± 1 | 3.5 ± 0.2 | 3.8 ± 0.1 | 3.5 ± 0.2 | 1 ± 0.4 | 9.5 | 64.5±3.3 | 25.4±2.6 | 8.9±2.1 | 1.2±0.4 | 1.4 × 10^4 M^–1 | 1.2 × 10^5 M^–1 | 109 | 19.0 ± 2.4 | dramatically increased | 3 (3 = up to 75%) | 0–1 | 1–2 | 0.59 | tolerability / signs of toxicity (e.g. weight loss) [10]: well-tolerated |
| Brc1cc[n+]([Pt-2]([I])([I])[n+]2ccc(Br)c3cc[nH]c32)c2[nH]ccc12 [Complex 6, cis-[Pt(4Braza)2I2]] | 3.2 ± 0.2 | 1 ± 0.4 | 4.3 ± 0.9 | 3.8 ± 0.2 | 3.8 ± 0.1 | 3.3 ± 0.4 | 4.1 | 73.9±4.6 | 16.6±2.1 | 7.2±1.6 | 1.5±0.4 | 7.4 × 10^3 M^–1 | 7.8 × 10^4 M^–1 | 99 | 17.3 ± 2.1 | has not been observed | 1–2 | 1 (1 = up to 25%) | 2 (2 = up to 50%) | 1.03 | tolerability / signs of toxicity (e.g. weight loss) [10]: well-tolerated |

— PMC5131915, “Platinum(II) Iodido Complexes of 7-Azaindoles with Significant Antiproliferative Effects: An Old Story Revisited with Unexpected Outcomes” (PLoS ONE, 2016)
